Tested on: subjects with moderately to severely active RA who have an inadequate response to methotrexate (MTX)
Experiment: Study 1 (add-on to MTX) - Alanine Aminotransferase (ALT) levels
Format: in vivo, human
Method: Double-blind, placebo-controlled add on study in subjects with moderately to severely active RA who have an inadequate response to methotrexate (MTX) (oral or parenteral).
595 subjects randomized to one of 6 dose regimens of Compound 1 (dosed as [Compound 1:HCl:3H2O]) (3 dose levels administered either once or twice daily) or placebo on top of each subject's stable dose of MTX.
Compound 1 (dosed as [Compound 1:HCl:3H2O]) is dosed for twelve weeks once daily (q.d.) (50 mg, 100 mg or 200 mg) or twice daily (b.i.d.) (25 mg, 50 mg or 100 mg); or placebo.
At Week 12, the subjects on placebo who have not achieved 20% improvement in swollen joint count (SJC66) and tender joint count (TJC68) are re-randomized automatically to receive Compound 1 (dosed as a [Compound 1:HCl:3H2O]) either at 100 mg q.d. or 50 mg b.i.d. doses in a blinded fashion; subjects on 50 mg q.d. who have not achieved 20% improvement in SJC66 and TJC68 will be assigned to 100 mg q.d. and subjects on 25 mg b.i.d. that have not achieved a 20% improvement in SJC66 and TJC68 will be assigned to 50 mg b.i.d. Subjects who switch treatment at week 12 are handled as if they discontinued at week 12 for the purpose of statistical analysis, whereas subjects in the other groups will maintain their randomized treatment until Week 24.
ALT levels determination is available at Quest Diagnostics, Clinical Trials, Quest House, 125-135 Staines Road, Hounslow, Middlesex, TW3 3JB, United Kingdom under Catalogue n#84460.
ALT catalyzes the exchange of the amino group of alanine with the oxogroup of 2-ketoglutarate to form pyruvate and glutamate. In the presence of lactic dehydrogenase, pyruvate reacts with NADH to form NAD+, measured spectrophotometrically. Guidelines for the ALT value have been issued by the association for Clinical Biochemistry and Laboratory Medicine, 130-132 Tooley Street LONDON SE1 2TU, united Kingdom, wherein the ALT value should be below 34 U/l in Female and below 52 U/L in male.

[1] = 12 weeks results, 2 × 100 mg b.i.d., week 1
[2] = 12 weeks results, 2 × 100 mg b.i.d., week 2
[3] = 12 weeks results, 2 × 100 mg b.i.d., week 4
[4] = 12 weeks results, 2 × 100 mg b.i.d., week 8
[5] = 12 weeks results, 2 × 100 mg b.i.d., week 12
[6] = 24 weeks results, continued 25 mg b.i.d., week 1
[7] = 24 weeks results, continued 25 mg b.i.d., week 2
[8] = 24 weeks results, continued 25 mg b.i.d., week 4
[9] = 24 weeks results, continued 25 mg b.i.d., week 8
[10] = 24 weeks results, continued 25 mg b.i.d., week 12
[11] = 24 weeks results, continued 25 mg b.i.d., week 16
[12] = 24 weeks results, continued 25 mg b.i.d., week 20
[13] = 24 weeks results, continued 25 mg b.i.d., week 24
[14] = 24 weeks results, continued 50 mg b.i.d., week 1
[15] = 24 weeks results, continued 50 mg b.i.d., week 2
[16] = 24 weeks results, continued 50 mg b.i.d., week 4
[17] = 24 weeks results, continued 50 mg b.i.d., week 8
[18] = 24 weeks results, continued 50 mg b.i.d., week 12
[19] = 24 weeks results, continued 50 mg b.i.d., week 16
[20] = 24 weeks results, continued 50 mg b.i.d., week 20
[21] = 24 weeks results, continued 50 mg b.i.d., week 24
[22] = 24 weeks results, continued 50 mg q.d., week 1
[23] = 24 weeks results, continued 50 mg q.d., week 2
[24] = 24 weeks results, continued 50 mg q.d., week 4
[25] = 24 weeks results, continued 50 mg q.d., week 8

Compound: O=C(Nc1nc2cccc(-c3ccc(CN4CCS(=O)(=O)CC4)cc3)n2n1)C1CC1 [Compound 1, cyclopropanecarboxylic acid {5-[4-(1,1-dioxo-thiomorpholin-4-ylmethyl)-phenyl]-[1,2,4]triazolo[1,5-a]pyridin-2-yl}-amide]
- Study 1 - ALT Mean CFB [1]: 1 IU/L
- Study 1 - ALT Mean percentage CFB [1]: 9%
- Study 1 - ALT Mean CFB [2]: 1 IU/L
- Study 1 - ALT Mean percentage CFB [2]: 10%
- Study 1 - ALT Mean CFB [3]: 1 IU/L
- Study 1 - ALT Mean percentage CFB [3]: 20%
- Study 1 - ALT Mean CFB [4]: 1 IU/L
- Study 1 - ALT Mean percentage CFB [4]: 25%
- Study 1 - ALT Mean CFB [5]: 2 IU/L
- Study 1 - ALT Mean percentage CFB [5]: 26%
- Study 1 - ALT Mean CFB [6]: 0.8 IU/L
- Study 1 - ALT Mean percentage CFB [6]: 8.9%
- Study 1 - ALT Mean CFB [7]: −0.4 IU/L
- Study 1 - ALT Mean percentage CFB [7]: 5.4%
- Study 1 - ALT Mean CFB [8]: 0.3 IU/L
- Study 1 - ALT Mean percentage CFB [8]: 10.9%
- Study 1 - ALT Mean CFB [9]: 1.8 IU/L
- Study 1 - ALT Mean percentage CFB [9]: 18.4%
- Study 1 - ALT Mean CFB [10]: 2.5 IU/L
- Study 1 - ALT Mean percentage CFB [10]: 28.6%
- Study 1 - ALT Mean CFB [11]: 1.2 IU/L
- Study 1 - ALT Mean percentage CFB [11]: 21.4%
- Study 1 - ALT Mean CFB [12]: 0.0 IU/L
- Study 1 - ALT Mean percentage CFB [12]: 15.2%
- Study 1 - ALT Mean CFB [13]: 1.4 IU/L
- Study 1 - ALT Mean percentage CFB [13]: 25.1%
- Study 1 - ALT Mean CFB [14]: 0.6 IU/L
- Study 1 - ALT Mean percentage CFB [14]: 8.5%
- Study 1 - ALT Mean CFB [15]: 1.2 IU/L
- Study 1 - ALT Mean percentage CFB [15]: 13.0%
- Study 1 - ALT Mean CFB [16]: 2.5 IU/L
- Study 1 - ALT Mean percentage CFB [16]: 24.2%
- Study 1 - ALT Mean CFB [17]: 2.2 IU/L
- Study 1 - ALT Mean percentage CFB [17]: 20.3%
- Study 1 - ALT Mean CFB [18]: 2.1 IU/L
- Study 1 - ALT Mean percentage CFB [18]: 27.6%
- Study 1 - ALT Mean CFB [19]: 1.6 IU/L
- Study 1 - ALT Mean percentage CFB [19]: 20.1%
- Study 1 - ALT Mean CFB [20]: 3.0 IU/L
- Study 1 - ALT Mean percentage CFB [20]: 26.2%
- Study 1 - ALT Mean CFB [21]: 1.8 IU/L
- Study 1 - ALT Mean percentage CFB [21]: 18.7%
- Study 1 - ALT Mean CFB [22]: 0.9 IU/L
- Study 1 - ALT Mean percentage CFB [22]: 6.6%
- Study 1 - ALT Mean CFB [23]: −0.7 IU/L
- Study 1 - ALT Mean percentage CFB [23]: 1.4%
- Study 1 - ALT Mean CFB [24]: −0.6 IU/L
- Study 1 - ALT Mean percentage CFB [24]: 4.8%
- Study 1 - ALT Mean CFB [25]: 0.4 IU/L
- Study 1 - ALT Mean percentage CFB [25]: 10.6%
